In US10836763B2, “5 to 7 membered heterocyclic amides as JAK inhibitors” (priority 2018, dated 2020):
Where two headings read alike, the source gives them in different places.

Columns and labels:
JAK1 = JAK1 (Homo sapiens (Human), UniProt P23458); test: Biochemical JAK kinase assay (LanthaScreen), JAK1
Protocol: (§1) Assay 1: Biochemical JAK Kinase Assays
(§2) A panel of four LanthaScreen JAK biochemical assays (JAK1, 2, 3 and Tyk2) were carried in a common kinase reaction buffer (50 mM HEPES, pH 7.5, 0.01% Brij-35, 10 mM MgCl2, and 1 mM EGTA). Recombinant GST-tagged JAK enzymes and a GFP-tagged STAT1 peptide substrate were obtained from Life Technologies.
(§3) Serially diluted compounds were pre-incubated with each of the four JAK enzymes and the substrate in white 384-well microplates (Corning) at ambient temperature for 1 h. ATP was subsequently added to initiate the kinase reactions in 10 μL total volume, with 1% DMSO. […] Kinase reactions were allowed to proceed for 1 hour at ambient temperature before a 10 μL preparation of EDTA (10 mM final concentration) and Tb-anti-pSTAT1 (pTyr701) antibody (Life Technologies, 2 nM final concentration) in TR-FRET dilution buffer (Life Technologies) was added. The plates were allowed to incubate at ambient temperature for 1 h before being read on the EnVision reader (Perkin Elmer). Emission ratio signals (520 nm/495 nm) were recorded and utilized to calculate the percent inhibition values based on DMSO and background controls.
(§4) For dose-response analysis, percent inhibition data were plotted vs. compound concentrations, and IC50 values were determined from a 4-parameter robust fit model with the Prism software (GraphPad Software). Results were expressed as pIC50 (negative logarithm of IC50) and subsequently converted to pKi (negative logarithm of dissociation constant, Ki) using the Cheng-Prusoff equation.

JAK2 = JAK2 (Homo sapiens (Human), UniProt O60674); test: Biochemical JAK kinase assay (LanthaScreen), JAK2
Sequence of JAK2 (O60674 whole entry): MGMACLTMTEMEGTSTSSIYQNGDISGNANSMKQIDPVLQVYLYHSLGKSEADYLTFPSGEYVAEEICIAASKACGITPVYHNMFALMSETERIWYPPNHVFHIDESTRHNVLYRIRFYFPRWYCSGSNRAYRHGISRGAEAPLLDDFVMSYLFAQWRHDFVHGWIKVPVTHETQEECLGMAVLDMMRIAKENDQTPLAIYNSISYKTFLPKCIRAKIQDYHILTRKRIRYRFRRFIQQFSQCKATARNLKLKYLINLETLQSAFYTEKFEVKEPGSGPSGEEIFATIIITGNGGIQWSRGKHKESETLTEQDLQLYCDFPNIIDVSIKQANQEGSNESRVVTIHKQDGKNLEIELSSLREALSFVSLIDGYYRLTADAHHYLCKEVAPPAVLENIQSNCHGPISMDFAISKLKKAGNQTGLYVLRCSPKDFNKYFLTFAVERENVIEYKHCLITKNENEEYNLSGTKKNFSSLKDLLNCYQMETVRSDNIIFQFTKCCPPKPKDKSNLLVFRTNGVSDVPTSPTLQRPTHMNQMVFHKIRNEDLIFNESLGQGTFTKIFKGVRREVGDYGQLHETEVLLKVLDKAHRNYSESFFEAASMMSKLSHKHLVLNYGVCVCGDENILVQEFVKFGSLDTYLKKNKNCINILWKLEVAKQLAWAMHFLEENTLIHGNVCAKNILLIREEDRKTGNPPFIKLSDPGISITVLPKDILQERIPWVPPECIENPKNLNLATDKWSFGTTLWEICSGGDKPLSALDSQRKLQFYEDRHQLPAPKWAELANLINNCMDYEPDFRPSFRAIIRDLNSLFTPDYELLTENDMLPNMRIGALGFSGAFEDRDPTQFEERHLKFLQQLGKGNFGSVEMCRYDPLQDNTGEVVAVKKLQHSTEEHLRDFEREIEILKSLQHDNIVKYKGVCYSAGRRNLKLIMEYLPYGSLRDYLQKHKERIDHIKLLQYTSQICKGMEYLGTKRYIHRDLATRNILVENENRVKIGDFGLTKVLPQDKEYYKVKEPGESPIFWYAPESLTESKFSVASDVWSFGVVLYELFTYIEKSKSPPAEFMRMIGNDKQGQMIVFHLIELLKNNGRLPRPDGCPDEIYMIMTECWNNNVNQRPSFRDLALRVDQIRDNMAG
Protocol: as §1, §2, §3, §4

JAK3 = JAK3 (Homo sapiens (Human), UniProt P52333); format: biochemical
Sequence of JAK3 (P52333 whole entry): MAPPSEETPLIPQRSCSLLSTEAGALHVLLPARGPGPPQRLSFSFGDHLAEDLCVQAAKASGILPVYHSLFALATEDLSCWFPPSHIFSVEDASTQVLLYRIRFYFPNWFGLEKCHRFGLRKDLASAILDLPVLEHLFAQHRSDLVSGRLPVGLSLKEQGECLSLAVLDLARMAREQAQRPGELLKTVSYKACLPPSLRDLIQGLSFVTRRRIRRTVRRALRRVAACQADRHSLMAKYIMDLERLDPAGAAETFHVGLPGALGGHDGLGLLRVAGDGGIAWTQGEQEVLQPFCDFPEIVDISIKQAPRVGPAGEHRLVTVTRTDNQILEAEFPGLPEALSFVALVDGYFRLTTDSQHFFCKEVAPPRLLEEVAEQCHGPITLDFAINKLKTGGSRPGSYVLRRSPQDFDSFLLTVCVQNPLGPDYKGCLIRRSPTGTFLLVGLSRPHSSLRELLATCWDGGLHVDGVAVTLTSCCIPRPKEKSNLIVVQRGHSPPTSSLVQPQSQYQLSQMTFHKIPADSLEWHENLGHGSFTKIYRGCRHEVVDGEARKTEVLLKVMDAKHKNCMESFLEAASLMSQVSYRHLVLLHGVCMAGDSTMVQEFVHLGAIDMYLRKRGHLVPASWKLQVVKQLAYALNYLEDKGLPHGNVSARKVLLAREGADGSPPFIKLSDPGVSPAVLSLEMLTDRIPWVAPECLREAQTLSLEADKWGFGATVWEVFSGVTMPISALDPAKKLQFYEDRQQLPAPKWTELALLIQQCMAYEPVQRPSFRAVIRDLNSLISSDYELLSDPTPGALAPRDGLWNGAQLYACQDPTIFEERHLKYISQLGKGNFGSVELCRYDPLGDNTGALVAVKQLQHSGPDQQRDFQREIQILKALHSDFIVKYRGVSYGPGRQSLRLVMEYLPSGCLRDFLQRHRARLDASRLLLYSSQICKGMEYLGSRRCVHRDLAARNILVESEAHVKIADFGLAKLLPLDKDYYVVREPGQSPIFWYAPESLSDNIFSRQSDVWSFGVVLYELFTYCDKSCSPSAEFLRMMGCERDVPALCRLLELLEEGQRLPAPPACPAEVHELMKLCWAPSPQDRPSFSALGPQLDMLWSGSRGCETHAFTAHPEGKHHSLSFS
Protocol: as §1, §2, §3, §4

Tyk2 = Tyk2 (Homo sapiens (Human), UniProt P29597); test: Biochemical JAK kinase assay (LanthaScreen), Tyk2
Sequence of Tyk2 (P29597 whole entry): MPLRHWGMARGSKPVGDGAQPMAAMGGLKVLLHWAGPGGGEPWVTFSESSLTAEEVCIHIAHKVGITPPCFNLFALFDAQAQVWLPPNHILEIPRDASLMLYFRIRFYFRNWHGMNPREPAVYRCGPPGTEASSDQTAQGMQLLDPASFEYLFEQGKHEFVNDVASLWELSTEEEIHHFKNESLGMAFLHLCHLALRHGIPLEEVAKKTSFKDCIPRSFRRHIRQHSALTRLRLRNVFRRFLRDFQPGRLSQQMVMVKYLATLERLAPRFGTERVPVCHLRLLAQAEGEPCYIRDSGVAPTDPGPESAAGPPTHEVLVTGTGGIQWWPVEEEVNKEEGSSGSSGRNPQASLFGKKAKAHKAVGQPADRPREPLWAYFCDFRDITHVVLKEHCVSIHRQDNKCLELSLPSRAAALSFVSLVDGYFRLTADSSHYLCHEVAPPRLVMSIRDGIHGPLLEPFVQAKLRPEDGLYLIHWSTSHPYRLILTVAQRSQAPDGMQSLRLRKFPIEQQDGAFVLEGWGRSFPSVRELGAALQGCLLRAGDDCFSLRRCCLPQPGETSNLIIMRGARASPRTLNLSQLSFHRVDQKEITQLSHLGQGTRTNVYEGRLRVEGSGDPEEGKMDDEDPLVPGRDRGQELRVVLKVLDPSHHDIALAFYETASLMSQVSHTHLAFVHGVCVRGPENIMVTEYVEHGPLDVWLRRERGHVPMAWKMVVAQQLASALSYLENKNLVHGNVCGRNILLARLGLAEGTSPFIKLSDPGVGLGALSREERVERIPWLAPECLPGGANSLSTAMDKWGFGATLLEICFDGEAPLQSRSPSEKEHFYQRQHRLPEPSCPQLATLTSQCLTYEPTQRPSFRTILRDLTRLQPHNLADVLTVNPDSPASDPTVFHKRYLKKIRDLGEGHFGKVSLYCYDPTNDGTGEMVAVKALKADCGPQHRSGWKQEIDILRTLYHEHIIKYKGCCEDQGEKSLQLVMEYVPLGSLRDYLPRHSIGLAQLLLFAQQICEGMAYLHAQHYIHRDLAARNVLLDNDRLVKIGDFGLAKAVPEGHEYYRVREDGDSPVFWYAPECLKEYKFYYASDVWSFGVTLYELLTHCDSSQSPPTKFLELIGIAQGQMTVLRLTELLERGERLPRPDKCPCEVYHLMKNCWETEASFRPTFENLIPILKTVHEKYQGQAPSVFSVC
Protocol: as §1, §2, §3, §4

[1] = test system: TSLP-evoked TARC release in human peripheral blood mononuclear cells; test: Inhibition of TSLP-evoked TARC release in human peripheral blood mononuclear cells; format: cell-based; settings: read-out: pIC50 ± st. dev., inhibition of TSLP-evoked TARC release (converted)
Description: Assay 4: Inhibition of TSLP-Evoked TARC Release in Human Peripheral Blood Mononuclear Cells
Thymic stromal lymphopoietin (TSLP) and thymus and activation-regulated chemokine (TARC) are overexpressed in asthmatic airways, and correlate with disease severity. In the lungs, TSLP may be released by bronchial epithelial cells in response to allergens and viral infections. TSLP signals through an IL-7Rα/TSLPR heterodimer found in a broad range of tissues and cell types, including epithelial cells, endothelial cells, neutrophils, macrophages, and mast cells. The binding of TSLP to its receptor induces a conformational change that activates JAK1 and JAK2 to phosphorylate various transcription factors, including STAT3 and STAT5. In immune cells, this triggers a cascade of intracellular events that result in cell proliferation, anti-apoptosis, dendritic cell migration, and production of Th2 cytokines and chemokines. In peripheral blood mononuclear cells (PBMC), TSLP has a proinflammatory effect by activating myeloid dendritic cells to attract and stimulate T cells, a process mediated by the chemoattractant TARC.
The potencies of the test compounds were measured for inhibition of TARC release.
PBMC aliquots (previously isolated from whole blood and frozen in aliquots at −80° C.) from 3 to 5 donors were thawed at 37° C. and added dropwise to 40 mL pre-warmed, sterile-filtered, complete RPMI media in 50 mL Falcon tubes. Cells were pelleted and resuspended in complete media at 2.24×10^6 cells/mL. Cells were seeded at […] (190,000 cells) per well in a tissue culture treated 96-well flat bottom microplate. Cells were allowed to rest for 1 hour at 37° C. with 5% CO2.
Compounds were received as 10 mM stock solutions in DMSO. 3.7-fold serial dilutions were performed to generate 9 concentrations of test compound in DMSO at 300× the final assay test concentration. […] After the 1 hour rest period, 95 µL of 2× compound was added to each well of PBMC, for a final assay concentration range of 33.33 μM to […]. 95 μL of 0.2% DMSO in complete media was added to the untreated control wells. Cells were pre-treated with compound for 1 hour at 37° C. with 5% CO2 prior to stimulation.
Recombinant human TSLP protein was reconstituted at 10 μg/mL in sterile DPBS with 0.1% BSA and stored in aliquots at −20° C. Immediately prior to use, an aliquot was thawed and prepared at 20× the final assay concentration in complete media. 10 μL of 20×TSLP was added to each well of PBMC, for a final assay concentration of 10 ng/mL. 10 μL of complete media was added to the unstimulated control wells. Cells were stimulated in the presence of compound for 48 hours at 37° C. with 5% CO2.
Following stimulation, the cell culture supernatants were harvested and TARC levels were detected by enzyme-linked immunosorbent assay (ELISA), using Human CCL17/TARC Quantikine ELISA Kit (R&D Systems # DDN00) according to the manufacturer's instructions.
For dose response analysis, the log [test compound (M)] was plotted versus the percent response values for each donor, and IC50 values were determined using a nonlinear regression analysis with GraphPad Prism Software using the 4-parameter sigmoidal dose-response algorithm with variable slope. Data are expressed as mean pIC50 (negative decadic logarithm IC50) values calculated from pIC50 values of individual donors and rounded to one decimal place.

[2] = ATP at Km 25 μM, pIC50 converted with Cheng-Prusoff
[3] = ATP at Km 3 μM, pIC50 converted with Cheng-Prusoff
[4] = ATP at Km 1.6 μM, pIC50 converted with Cheng-Prusoff
[5] = ATP at Km 10 μM, pIC50 converted with Cheng-Prusoff
[6] = PBMC from 3 to 5 donors, TSLP 10 ng/mL, 48 hours, TARC ELISA

Sequence of JAK1 (P23458 whole entry): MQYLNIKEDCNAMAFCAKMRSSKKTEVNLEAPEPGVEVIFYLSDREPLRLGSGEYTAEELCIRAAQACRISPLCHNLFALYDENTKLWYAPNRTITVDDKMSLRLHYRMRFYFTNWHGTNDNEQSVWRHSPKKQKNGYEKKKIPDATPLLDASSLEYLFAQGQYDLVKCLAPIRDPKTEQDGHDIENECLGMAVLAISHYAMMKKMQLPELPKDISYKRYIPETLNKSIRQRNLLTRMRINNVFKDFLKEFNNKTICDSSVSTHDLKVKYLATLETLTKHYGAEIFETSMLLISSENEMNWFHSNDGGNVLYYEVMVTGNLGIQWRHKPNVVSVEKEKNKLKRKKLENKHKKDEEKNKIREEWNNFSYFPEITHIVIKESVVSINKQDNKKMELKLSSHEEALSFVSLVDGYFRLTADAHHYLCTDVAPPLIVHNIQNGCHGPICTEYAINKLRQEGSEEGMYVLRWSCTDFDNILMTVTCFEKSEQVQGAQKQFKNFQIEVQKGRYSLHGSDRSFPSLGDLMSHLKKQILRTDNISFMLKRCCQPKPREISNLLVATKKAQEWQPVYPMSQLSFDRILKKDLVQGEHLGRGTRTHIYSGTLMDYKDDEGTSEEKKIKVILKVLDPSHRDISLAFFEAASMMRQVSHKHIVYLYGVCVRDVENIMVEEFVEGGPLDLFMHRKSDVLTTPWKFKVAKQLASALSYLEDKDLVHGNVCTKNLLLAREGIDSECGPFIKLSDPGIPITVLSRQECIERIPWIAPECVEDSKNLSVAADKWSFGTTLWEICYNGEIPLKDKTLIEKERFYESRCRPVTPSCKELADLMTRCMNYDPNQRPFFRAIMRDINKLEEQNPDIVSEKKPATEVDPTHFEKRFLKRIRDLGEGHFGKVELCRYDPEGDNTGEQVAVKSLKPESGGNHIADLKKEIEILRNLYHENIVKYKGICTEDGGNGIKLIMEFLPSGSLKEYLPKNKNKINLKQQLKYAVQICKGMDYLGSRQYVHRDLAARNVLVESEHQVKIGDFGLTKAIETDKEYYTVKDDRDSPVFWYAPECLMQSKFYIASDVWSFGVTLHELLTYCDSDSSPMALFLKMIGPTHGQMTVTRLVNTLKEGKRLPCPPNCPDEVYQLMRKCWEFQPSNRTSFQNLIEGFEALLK

Row | Compound | JAK1 pKi (JAK1; [2]) | JAK2 pKi (JAK2; [3]) | JAK3 PKi (JAK3; [4]) | Tyk2 pKi (Tyk2; [5]) | IC50 [1, 6] [µM] | JAK1 pKi (JAK1) | JAK2 pKi (JAK2) | JAK3 PKi (JAK3) | Tyk2 pKi (Tyk2) | IC50 ([1]; PBMC, 48 h) [µM]
1 | CCCN1Cc2[nH]c(-c3n[nH]c4cc(-c5ccc(O)cc5CC)ccc34)nc2C[C@H]1C(=O)N1CCN(CCO)CC1 [Compound 1, (S)-(2-(6-(2-ethyl-4-hydroxyphenyl)-1H-indazol-3-yl)-5-propyl-4,5,6,7-tetrahydro-3H-imidazo[4,5-c]pyridin-6-yl)(4-(2-hydroxyethyl)piperazin-1-yl)methanone] | 10.2 | 10.3 | 9.8 | 9.0 | 0.0794 | – | – | – | – | –
2 | CCCN1Cc2[nH]c(-c3n[nH]c4cc(-c5ccc(O)cc5CC)ccc34)nc2C[C@H]1C(=O)N1C[C@@H]2C[C@H]1CN2C [Compound 2, ((S)-2-(6-(2-ethyl-4-hydroxyphenyl)-1H-indazol-3-yl)-5-propyl-4,5,6,7-tetrahydro-3H-imidazo[4,5-c]pyridin-6-yl)((1S,4S)-5-methyl-2,5-diazabicyclo[2.2.1]heptan-2-yl)methanone] | 10.3 | 10.2 | 9.8 | 8.9 | 0.158 | – | – | – | – | –
3 | CCc1cc(O)ccc1-c1ccc2c(-c3nc4c([nH]3)CN(C(C)C)[C@H](C(=O)N3CCCN(C)CC3)C4)n[nH]c2c1 [Compound 4, (S)-(2-(6-(2-ethyl-4-hydroxyphenyl)-1H-indazol-3-yl)-5-isopropyl-4,5,6,7-tetrahydro-3H-imidazo[4,5-c]pyridin-6-yl)(4-methyl-1,4-diazepan-1-yl)methanone] | – | – | – | – | – | 10.1 | 10.4 | 10.1 | 9.0 | 0.158
4 | CCc1cc(O)ccc1-c1ccc2c(-c3nc4c([nH]3)CN(C)[C@H](C(=O)N3CCN(CCO)C[C@H]3C)C4)n[nH]c2c1 [Compound 5, ((S)-2-(6-(2-ethyl-4-hydroxyphenyl)-1H-indazol-3-yl)-5-methyl-4,5,6,7-tetrahydro-3H-imidazo[4,5-c]pyridin-6-yl)((R)-4-(2-hydroxyethyl)-2-methylpiperazin-1-yl)methanone] | – | – | – | – | – | 10.3 | 10.5 | 10.1 | 9.2 | 0.0316
5 | CCc1cc(O)ccc1-c1ccc2c(-c3nc4c([nH]3)CN(C(C)C)[C@H](C(=O)N3CC[C@H](N(C)C)C3)C4)n[nH]c2c1 [Compound 6, ((S)-3-(dimethylamino)pyrrolidin-1-yl)((S)-2-(6-(2-ethyl-4-hydroxyphenyl)-1H-indazol-3-yl)-5-isopropyl-4,5,6,7-tetrahydro-3H-imidazo[4,5-c]pyridin-6-yl)methanone] | – | – | – | – | – | 10.2 | 10.4 | 10.0 | 9.0 | 0.158
6 | CCCN1Cc2[nH]c(-c3n[nH]c4cc(-c5cc(F)c(O)cc5CC)ccc34)nc2C[C@H]1C(=O)N1CCN(CCO)CC1 [Compound C-1, (S)-(2-(6-(2-ethyl-5-fluoro-4-hydroxyphenyl)-1H-indazol-3-yl)-5-propyl-4,5,6,7-tetrahydro-3H-imidazo[4,5-c]pyridin-6-yl)(4-(2-hydroxyethyl)piperazin-1-yl)methanone, reference compound] | 10.2 | 10.5 | – | 9.1 | 0.1 | – | – | 9.7 | – | –
7 | CCCN1Cc2[nH]c(-c3n[nH]c4cc(-c5cc(F)c(O)cc5CC)ccc34)nc2C[C@H]1C(=O)N1C[C@@H]2C[C@H]1CN2C [Compound C-2, ((S)-2-(6-(2-ethyl-5-fluoro-4-hydroxyphenyl)-1H-indazol-3-yl)-5-propyl-4,5,6,7-tetrahydro-3H-imidazo[4,5-c]pyridin-6-yl)((1S,4S)-5-methyl-2,5-diazabicyclo-[2.2.1]heptan-2-yl)methanone, reference compound] | 10.3 | 10.8 | – | 9.5 | 0.251 | – | – | 9.9 | – | –
8 | CCc1cc(O)c(F)cc1-c1ccc2c(-c3nc4c([nH]3)CN(C)[C@H](C(=O)N3CCN(C)C[C@@H]3C)C4)n[nH]c2c1 [Compound C-3, ((S)-2,4-dimethylpiperazin-1-yl)((S)-2-(6-(2-ethyl-5-fluoro-4-hydroxyphenyl)-1H-indazol-3-yl)-5-methyl-4,5,6,7-tetrahydro-3H-imidazo[4,5-c]pyridin-6-yl)methanone, reference compound] | – | 10.5 | – | 9.3 | 0.1 | – | – | 9.7 | – | –
9 | CCc1cc(O)c(F)cc1-c1ccc2c(-c3nc4c([nH]3)CN(C(C)C)[C@H](C(=O)N3CCCN(C)CC3)C4)n[nH]c2c1 [Compound C-4, (S)-(2-(6-(2-ethyl-5-fluoro-4-hydroxyphenyl)-1H-indazol-3-yl)-5-isopropyl-4,5,6,7-tetrahydro-3H-imidazo[4,5-c]pyridin-6-yl)(4-methyl-1,4-diazepan-1-yl)methanone, reference compound] | 10.0 | 10.6 | – | 9.3 | 0.1 | – | – | 9.8 | – | –
10 | CCc1cc(O)c(F)cc1-c1ccc2c(-c3nc4c([nH]3)CN(C)[C@H](C(=O)N3CCN(CCO)C[C@H]3C)C4)n[nH]c2c1 [Compound C-5, ((S)-2-(6-(2-ethyl-5-fluoro-4-hydroxyphenyl)-1H-indazol-3-yl)-5-methyl-4,5,6,7-tetrahydro-3H-imidazo[4,5-c]pyridin-6-yl)((R)-4-(2-hydroxyethyl)-2-methyl-piperazin-1-yl)methanone, reference compound] | 10.1 | 10.7 | – | 9.5 | 0.0501 | – | – | 9.9 | – | –
